Data set [1] has as its system U937 human lymphoma cells. Briefly: Cell death assay in U937 cells (sulforhodamine B, 72 h). The format is cell-based. As to the method:
To each well was added 2 μL of 100× compound stock solutions in DMSO at varying concentrations so that the cells were treated with concentrations between 0 μM and 100 μM compound. Each concentration was tested in quintuplicate. In each plate 5 wells received 10 μM etoposide as a positive control and 5 wells received 2 μL of DMSO as a negative control. […] 1 Specifically, to each well of the plate was added 50 μL of an 80% (w/v) solution of TCA in H2O and the plates were allowed to rest at 4° C. overnight. The plates were then washed gently with a steam of H2O five times to remove the excess TCA and precipitated serum proteins. […] After staining, the wells were gently washed 5 times with 100 μL of 1% (v/v) acetic acid to remove the unbound dye. The plates were then allowed to air dry. […] The OD was then read at 510 nm in a Molecular Dynamics plate reader and the percent cell death calculated and normalized to the positive control (100% cell death) and the negative control (0% cell death). The percent cell death was averaged for each compound concentration and plotted as a function of compound concentration. The data were fit to a logistical dose response curve using Table curve 2D and the IC50 value was calculated. The experiment was repeated three times and the average of the calculated IC50 values was reported. The standard error of the mean (SEM) was determined and reported for the triplicate experiments.
U-937 cells grow in culture as a suspension.

Data set [2] can be described thus: EGTA fluorescence titration assay (zinc binding). Particulars: read-out: Zinc Binding (KD) nM.
Another data set addresses T1, caspase-3 (Homo sapiens, UniProt P42574).
T1 construct: Active caspase-3 is a homodimer of heterodimers and is produced by proteolysis of procaspase-3; 6xHis (C); made in house; host or cells: Escherichia coli BL21(DE3), plasmid pHC332
T1 sequence (P42574 29-175 limits assumed): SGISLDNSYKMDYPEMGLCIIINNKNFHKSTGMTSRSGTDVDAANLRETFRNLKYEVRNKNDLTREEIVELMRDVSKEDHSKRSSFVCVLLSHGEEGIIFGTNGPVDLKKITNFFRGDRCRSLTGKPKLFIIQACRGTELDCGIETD
T1 sequence (P42574 176-277 limits assumed): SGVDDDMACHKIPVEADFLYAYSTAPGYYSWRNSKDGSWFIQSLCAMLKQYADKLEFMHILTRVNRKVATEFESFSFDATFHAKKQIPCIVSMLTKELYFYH
As to the kind of experiment: Caspase-3 activity assay (relief of zinc mediated inhibition). The format is biochemical. To be noted: for activation at 10 µM: 10 μM compound, 2.5 μM zinc. How it is done:
Caspase-3 Activity Assays—Zinc-free stocks (2×) of caspase-3 (1 μM) were prepared in Caspase Activity Buffer. Compound stock solutions were made (2×) at various concentrations from 200 μM to 200 nM in Caspase Activity Buffer. […] The plates were incubated at room temperature for 30 minutes. […] The data for each compound concentration (4 wells) was averaged and the percent activity was plotted as a function of compound concentration. The data was analyzed using Table Curve 2D and fitted to a logistical dose-response curve. […] The percent activity at 10 μM was determined for each compound and reported as an average of the three replicate experiments with the corresponding SEM.

Another data set deals with SK-MEL-5 cells. Briefly: Live cell confocal imaging, colocalization with caspase-3/-7 activity. Particulars: 25 μM with FAM-DEVD-fmk. The format is cell-based, human. How it is done:
Live Cell Imaging—SK-Mel-5 cells were grown on the bottom of no. 1 borosilicate growth chambers (Nunc) to a confluency of […]. Cells were then treated with DMSO, 25 μM FAM-DEVD-fmk in DMSO, 25 μM AF350-PAC-1 in DMSO, or both 25 μM FAM-DEVD-fmk and 25 μM AF350-PAC-1 concurrently for 1 hour at 37° C. and 5% CO2. Cells were then washed 5 times with RPMI 1640 growth media lacking phenol red. The cells were then allowed to further incubate at 37° C. for 2 hours before imaging. For cells stained with SYBR green for nuclear staining, a 1:100,000 dilution of SYBR green in media was added immediately prior to imaging. Cells were imaged on a Leica SP2 Multiphoton Confocal microscope.

The nature of data set [3]: Solubility in β-cyclodextran. The class given is physicochemical.
For data set [4], the target named is T2, procaspase-3(D9A/D28A/D175A) mutant (Homo sapiens, UniProt P42574, D175A/D28A/D9A).
T2 construct: 6xHis (C); made in house; host or cells: Escherichia coli BL21(DE3) (printed for procaspase-3 in general, not for the mutant by name)
T2 sequence (P42574 1-277 D9A/D28A/D175A): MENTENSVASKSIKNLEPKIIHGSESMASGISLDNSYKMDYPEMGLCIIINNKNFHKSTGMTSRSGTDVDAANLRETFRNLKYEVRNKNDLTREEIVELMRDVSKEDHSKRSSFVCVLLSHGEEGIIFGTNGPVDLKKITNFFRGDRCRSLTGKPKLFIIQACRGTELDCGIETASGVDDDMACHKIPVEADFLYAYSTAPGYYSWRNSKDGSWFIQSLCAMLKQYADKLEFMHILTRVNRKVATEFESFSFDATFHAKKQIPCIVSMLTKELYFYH
As to the kind of experiment: Procaspase-3 D3A mutant activity in the presence of zinc. The class given is biochemical. Particulars: 10 μM zinc, S-PAC-1 added, monitored at 15 minute intervals. From the text:
Zinc ions are known to inhibit procaspase-3. […] The effect of a range of concentrations of zinc on caspase-3 and procaspase-3 enzymatic activity was examined. All buffers were first treated with Chelex® resin to remove any trace metal contaminants. […] To ensure that the activity of the proenzyme was being monitored, a proteolytically uncleavable mutant of procaspase-3 (in which the three aspartic acid cleavage site residues are mutated to alanine (D9A/D28A/D175A)) was used (24,32).

Data set [5] in a line: Pharmacokinetics of S-PAC-1 in lymphoma bearing dogs. The format is in vivo, dog. To be noted: continuous infusion.
Description: In addition, blood was collected from all pet dogs at each scheduled follow up visit to characterize hematologic and non-hematologic toxicity. Between administrations, patients were monitored by pet owners for gastrointestinal toxicity observational scores adhering the Veterinary Co-operative oncology group common terminology and criteria for adverse events (VCOG_CTCAE) (44).
Data set [6] can be described thus: Pharmacokinetics of S-PAC-1 i.p. in mice. Particulars: C57/BL6 mice, 125 mg/kg i.p. The format is in vivo, mouse. From the text:
Mice were sacrificed and blood drawn at varying time points after administration. Blood samples were centrifuged and the serum was collected and analyzed by liquid chromatography to determine drug concentration.

Data set [7] is described as follows: Continuous-rate infusion pharmacokinetics in healthy research dogs. The format is in vivo. Particulars: hound, dog, plasma, continuous intravenous infusion, read-out: steady state plasma concentration. As to the method: Each dog received an initial loading dose via i.v. infusion over the course of 10 minutes followed by a maintenance dosage delivered by an infusion pump for an additional 24 hours.

The subject of a further data set is mice. Particulars: cited from earlier work.
The mark [8] stands for this setting: Homo sapiens, U-937, 72 h, 72 h exposure, sulforhodamine B assay, read-out: U937 (IC50 μM).
Setting [9] is: Homo sapiens, U-937, 72 h, read-out: U937 (IC50 μM), 72 h exposure, sulforhodamine B assay.

The values below come from patent US9643960B2, “Procaspase activating compounds” (The Board of Trustees of the University of Illinois, priority 2009, dated 2017).

Like-named read-outs stand apart in the source and are kept apart here.

As for `C=CCc1cccc(/C=N/NC(=O)CN2CCN(Cc3cccc(Cn4cc(CNC(=O)Cc5c(C)c6cc(S(=O)(=O)O)c(N)cc6oc5=O)nn4)c3)CC2)c1O` [AF-PAC-1], the IC50 in data set [1] (setting [8]) is 14.8 µM. The dissociation constant Kd in data set [2] is 61 nM. For the same compound, at caspase-3, the activation at 10 µM is 6.3%. Also, on caspase-3 (50 μM compound), the activation at 50 µM came out at 20%. The “colocalization with sites of caspase-3/-7 enzymatic activity” value in the data set on SK-MEL-5 cells is recorded as “good colocalization”.

As for `C=CCc1cc(/C=N/NC(=O)CN2CCN(Cc3ccccc3)CC2)c(O)c(CC=C)c1` [PAC-1-I-10], the IC50 turned out to be 1.8 ± 0.4 µM in [1] (setting [9]) and 1.6 ± 0.4 µM in [1] (read-out: U937 (IC50 μM), 72 h exposure, sulforhodamine B assay).

Consider `C=CCc1cccc(/C=N/NC(=O)CN2CCN(Cc3ccccn3)CC2)c1O` [PAC-1-II-1], for which the IC50 in [1] (setting [8]) amounted to 9.5 ± 1.8 µM. The Kd in data set [2] amounted to 76 nM. On caspase-3, this compound returned an activation at 10 µM of 48 ± 3%.

For the compound `C=CCc1cccc(/C=N/NC(=O)CN2CCN(Cc3ccc(F)cc3)CC2)c1O` [PAC-1-II-4], the half-maximal inhibitory concentration (IC50) in [1] (setting [8]) worked out at 2 ± 0.2 µM. For the same compound, in data set [2], the dissociation constant Kd was 96 nM. Further, at caspase-3, the activation at 10 µM came to 24.2 ± 1.7%.

For the compound `C=CCc1cccc(/C=N/NC(=O)CN2CCN(Cc3cc(OC)ccc3OC)CC2)c1O` [PAC-1-II-5], the “Solubility in β-Cyclodextran (mg β-CD/μmol Compound)” value (shortened to “Solubility in β-Cyclodextran”) in data set [3] was determined as 15.2 mg β-CD/μmol Compound. In addition, in data set [1] (setting [8]), the IC50 worked out at 1 ± 0.1 µM. Besides, the Kd in [2] is 36 nM. Further, on caspase-3, the activation at 10 µM was 31 ± 3.6%.

With `C=CCc1cccc(/C=N/NC(=O)CN2CCN(Cc3ccc(OC)cc3)CC2)c1O` [PAC-1-II-6], in data set [3], the “Solubility in β-Cyclodextran” value amounted to 7.1 mg β-CD/μmol Compound. Further, in data set [1] (setting [8]), the IC50 was 2.7 ± 0.8 µM. Also, the dissociation constant Kd in data set [2] is 41 nM. The activation at 10 µM on caspase-3 is 24 ± 3.4%.

Consider `C=CCc1cccc(/C=N/NC(=O)CN2CCN(Cc3cccc([N+](=O)[O-])c3)CC2)c1O` [PAC-1-II-7], for which the “Solubility in β-Cyclodextran” value in [3] amounted to 4.0 mg β-CD/μmol Compound. Also, the IC50 in [1] (setting [8]) is 4.6 ± 1 µM.

For `C=CCc1cccc(/C=N/NC(=O)CN2CCN(Cc3cccc(C(=O)O)c3)CC2)c1O` [PAC-1-II-8], the “Solubility in β-Cyclodextran” value in [3] was found to be 5.6 mg β-CD/μmol Compound. Moreover, the half-inhibitory concentration (IC50) in data set [1] (setting [8]) was 2.3 µM.

In the case of `COc1ccc(OC)c(CN2CCN(CC(=O)N/N=C/c3ccccc3O)CC2)c1` [PAC-1-III-1], the IC50 in data set [1] (setting [9]) came out at 12 ± 2 µM.

`COc1cccc(/C=N/NC(=O)CN2CCN(Cc3cc(OC)c(OC)c(OC)c3)CC2)c1O` [PAC-1-III-2]: the IC50 in data set [1] (setting [8]) is 27 ± 9.4 µM.

With `COc1cc(O)c(/C=N/NC(=O)CN2CCN(Cc3cc(OC)c(OC)c(OC)c3)CC2)c(OC)c1` [PAC-1-III-3], the IC50 in data set [1] (setting [8]) was found to be 38 ± 6.2 µM.

For `COc1ccc(OC)c(CN2CCN(CC(=O)N/N=C/c3c(O)cc(OC)cc3OC)CC2)c1` [PAC-1-III-4], in data set [1] (setting [8]), the IC50 is 17.5 µM.

Consider `COc1cccc(/C=N/NC(=O)CN2CCN(Cc3ccccc3CS(=O)(=O)c3ccccc3)CC2)c1O` [PAC-1-III-5], for which the IC50 in data set [1] (setting [8]) was found to be 8.4 ± 1.6 µM.

Consider `COc1cc(O)c(/C=N/NC(=O)CN2CCN(Cc3ccccc3CS(=O)(=O)c3ccccc3)CC2)c(OC)c1` [PAC-1-III-6], for which the concentration for half-maximal inhibition (IC50) in data set [1] (setting [8]) is 5.5 ± 1.5 µM.

Regarding `C=CCc1cccc(/C=N/NC(=O)CN2CCC(Cc3ccccc3)CC2)c1O` [PAC-1-IV-3], in data set [1] (setting [8]), the 50% inhibitory concentration (IC50) came to 2.7 ± 1.1 µM. Further, the dissociation constant Kd in [2] amounted to 50 nM. The same compound showed an activation at 10 µM on caspase-3 of 36 ± 3%.

Regarding `O=C(CN1CCN(Cc2ccccc2)CC1)NCCc1ccccc1O` [PAC-1-IV-6], the half-inhibitory concentration (IC50) in [1] (setting [8]) was more than 100 µM. On caspase-3, this compound returned an activation at 10 µM of 4.1 ± 1%.

In the case of `O=C(CN1CCN(Cc2ccccc2)CC1)NCc1ccccc1O` [PAC-1-IV-7], the IC50 in [1] (setting [8]) is more than 100 µM. This compound also returned an activation at 10 µM on caspase-3 of 4.4 ± 0.9%.

Regarding `C=CCc1cccc(/C=N/NC(=O)CN2CCN(Cc3ccc(S(N)(=O)=O)cc3)CC2)c1O` [S-PAC-1, (E)-4-((4-(2-(2-(3-allyl-2-hydroxybenzylidene)hydrazinyl)-2-oxoethyl)piperazin-1-yl)methyl)benzenesulfonamide], in [4], the “enzymatic activity of uncleavable procaspase-3 (D3A)” value is recorded as “rapidly (within 5 minutes) enhances the enzymatic activity of the proenzyme”. In addition, in [5], the “time to steady state from beginning of infusion” value is not above 6 h. The “Solubility in β-Cyclodextran” value in data set [3] is 3.5 mg β-CD/μmol Compound. Moreover, the “S-PAC-1 in the blood at 4 hours post injection” value in data set [6] is given as “no S-PAC-1 remaining in the blood”. For the same compound, the concentration at 24 h in [7] is approximately 15 µM.

Turning to `c1ccc(CN(CCN(Cc2ccccn2)Cc2ccccn2)Cc2ccccn2)nc1` [TPEN, N,N,N′,N′-tetrakis (2-pyridylmethyl)ethylenediamine], the Neurotoxicity entry in the data set on mice was “severe neurotoxicity in mice at low concentrations and rapid death at higher concentrations”.

As to `C=CCc1cccc(/C=N/NC(=O)CN2CCN(Cc3cccc(Cn4cc(CNC(=O)Cc5c(C)c6cc(S(=O)(=O)O)c(N)cc6oc5=O)nn4)c3)CC2)c1O` [drawing 79], the half-inhibitory concentration (IC50) in data set [1] (72 h exposure, sulforhodamine B assay, read-out: U937 (IC50 μM)) was found to be 10.7 µM.

As a reminder, the IC50 is the point on the concentration scale where inhibition reaches its midpoint. One may read the Kd as a measure of binding affinity in units of concentration.
